Assay results published in PubChem BioAssay (NCI).
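Values below derive from 48-hour exposures of cells grown in 96-well plates, with endpoints linearly interpolated between the two concentrations bracketing the appropriate inhibition level. GI50: concentration for 50% inhibition of growth. TGI is the concentration that stops growth completely.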

These compounds were tested on MDA-MB-468 breast (assay: NCI anticancer screen, dose series, 48 h).
O=C1CSC(=S)N1Cc1cccnc1 showed a GI50 of 3.82 µM and a TGI of 17 µM.
O=C(Nc1cccnc1)c1cccc([N+](=O)[O-])c1 showed a GI50 greater than 100 µM and a TGI greater than 100 µM.
In the case of C=C(C)[C@@H]1CC[C@]2(C(=O)O)CC[C@]3(C)[C@H](CC[C@@H]4[C@@]5(C)C[C@@H](CC#Cc6ccc(Br)cc6)C(=O)C(C)(C)[C@@H]5CC[C@]43C)[C@@H]12, the GI50 is reported as 7.25 µM and the TGI is reported as 33.5 µM.
In the case of COc1ccc2cc3[n+](cc2c1OC)CCc1cc2c(cc1-3)OCO2, the GI50 is reported as 0.675 µM and the TGI is reported as 6.78 µM.
In the case of CCN(CC)CCCNc1nc2ccccc2c2c(=O)c3cc(Cl)ccc3sc12, the GI50 is reported as 1.59 µM and the TGI is reported as 4.85 µM.
In the case of O=c1oc2ccc(F)cc2c(=O)n1-c1ccc(Cl)cc1F, the GI50 is reported as 1.51 µM and the TGI is reported as 5.31 µM.
In the case of Cc1cc(O)ccc1O, the GI50 is reported as 13.3 µM and the TGI is reported as 27.3 µM.
Cc1ccc(NSc2ccccc2[N+](=O)[O-])cc1 gave a GI50 of 0.57 µM and a TGI of 16.3 µM.
With COc1ccc(Cn2cnc3cc(C(=O)Nc4cccc5ccccc45)ccc32)c(OC)c1 the GI50 was 0.0358 µM and the TGI was 2.42 µM.
COc1ccc(Cn2cc3c(c2-c2ccc(O)cc2)CCc2cnoc2-3)cc1 gave a GI50 of 0.245 µM and a TGI of 1.25 µM.
NC(N)=N/N=C(/c1ccccc1)c1ccc(Cl)cc1 was tested, and the GI50 was 2.4 µM and the TGI was 13 µM.
For CC(C)=CCc1ccc(O)c(=O)cc1C(C)C, the GI50 was 0.868 µM and the TGI was 5.36 µM.
For CCC1=Cc2cc(OC)ccc2OC12C=Cc1cc(OC)ccc1O2 (configuration not stated), the GI50 was 0.436 µM and the TGI was greater than 100 µM.
COc1cc(Nc2ncc3c(C)nc(-c4cccc(Oc5ccccc5)c4)n3n2)cc(OC)c1OC was tested, and the GI50 was 2.98 µM and the TGI was 18.4 µM.
CC(=O)Nc1ccc2c(c1)C(=O)c1cccc(F)c1-2 gave a GI50 of 15.2 µM and a TGI of 45.8 µM.
In the case of COc1cc(C(=O)/C=C/c2c(-c3ccc(F)cc3)nc3ncccn23)cc(OC)c1OC, the GI50 is reported as 2.75 µM and the TGI is reported as 6.89 µM.
COc1cc(C2CC(c3ccc(Nc4ccnc5cc(Cl)ccc45)cc3)=NN2C=O)cc(OC)c1OC (configuration not stated) showed a GI50 of 1.83 µM and a TGI of 4.38 µM.
For CCCCCCCCCCCCSC(=NC)NC, the GI50 was 1.47 µM and the TGI was 3.14 µM.
With O=c1[nH]ccc2nc(-c3ccc(CN4CCC(c5nc(-c6ccccn6)n[nH]5)CC4)cc3)c(-c3ccccc3)cc12 the GI50 was 0.0887 µM and the TGI was 7.14 µM.
In the case of CC1(C)N=C(N)N=C(N)N1c1ccc(OCC(=O)N2CCOCC2)c(Cl)c1, the GI50 is reported as 1.23 µM and the TGI is reported as greater than 100 µM.
O=C1/C(=C/c2ccc([N+](=O)[O-])o2)Oc2ccccc21 showed a GI50 of 1.17 µM and a TGI of 2.94 µM.
Work on COc1ccc(/C(=N\O)c2cc(OC)c(OC)c(OC)c2)c(OC)c1N yielded a GI50 of 3.99 µM and a TGI greater than 100 µM.
O=C(Nc1cccc([N+](=O)[O-])c1)c1ccc2ccccc2c1O was tested, and the GI50 was 3.38 µM and the TGI was 71.3 µM.
O=C(N/N=c1/ccoc2cccnc12)N1CCN(c2ncccn2)CC1 gave a GI50 of less than 0.01 µM and a TGI of 1.34 µM.
COc1cc(OC)c2cc(C(=O)O)c(=O)oc2c1 gave a GI50 greater than 100 µM and a TGI greater than 100 µM.
Compound Cc1ccc(/C=C/C(=O)c2ccc(N)cc2)c(C)c1 has a GI50 of 2.41 µM and a TGI of 5.13 µM.
N#Cc1c(NC(=O)c2cccc3ccccc23)sc2c1CCCC2 gave a GI50 of 0.154 µM and a TGI greater than 7.22 µM.
COc1ccc2c(c1)C(=O)/C(=C/c1ccc([N+](=O)[O-])s1)O2 was tested, and the GI50 was 0.291 µM and the TGI was 1.36 µM.
Compound COc1cc2c(cc1OCCCCCn1c(-c3ccco3)nc3ccccc31)N=C[C@@H]1CCCN1C2=O has a GI50 of less than 0.01 µM and a TGI of less than 0.01 µM.
With O=C(NCC(=O)N1CC[C@H](NC2CCC(O)(c3ccc(-c4ncccn4)cn3)CC2)C1)c1cccc(C(F)(F)F)c1 (some centres not stated) the GI50 was 19.6 µM and the TGI was 95.4 µM.
Compound CS(=O)(=O)Nc1cccc(-c2ccc3c(NC(=O)C4CC4)n[nH]c3c2)c1 has a GI50 of 0.622 µM and a TGI of 24.8 µM.
CCCCCCCCCCCCCCCCOC(=O)c1c(C)[nH]c(/C=C2\N=C(c3ccc[nH]3)C=C2OC)c1C showed a GI50 of 1.66 µM and a TGI of 5.29 µM.
O=C1Nc2ccccc2/C1=C/c1cn(C(=O)c2c(Cl)cccc2Cl)c2ccccc12 gave a GI50 of 4.52 µM and a TGI of 20.1 µM.
Compound Cn1ccnc1C(=O)/C=C/c1ccc(C(=O)Nc2ccccc2O)cc1 has a GI50 of 1.6 µM and a TGI of 3.67 µM.
CC1CC(C)/C(=N/NC(N)=O)C(C(O)CC2CCC(=O)NC2=O)C1 (configuration not stated) was tested, and the GI50 was 9.15 µM and the TGI was greater than 100 µM.
Work on Cc1cc(NCCCCNc2ccnc3cc(Cl)ccc23)nc(Nc2ccc(C(=O)N3CCCC3)cc2)n1 yielded a GI50 of 1.82 µM and a TGI of 4.04 µM.
With O=C(CC(O)c1ccncc1)c1ccccc1 (configuration not stated) the GI50 was 24.3 µM and the TGI was greater than 100 µM.
In the case of CCOCC(=O)N[C@H]1CCc2cc(OC(=O)COCC)c(OC)c(OC)c2-c2ccc(SC)c(=O)cc21, the GI50 is reported as 0.0714 µM and the TGI is reported as greater than 100 µM.
Work on O=C(Nc1ccc(Cl)cc1)c1ccc([N+](=O)[O-])o1 yielded a GI50 of 3.08 µM and a TGI of 14.9 µM.
O=C1/C(=C/c2ccc(Cl)cc2)CN(Cc2cn(CCNc3ccnc4cc(Cl)ccc34)nn2)C/C1=C\c1ccc(Cl)cc1 gave a GI50 of 0.234 µM and a TGI of 0.644 µM.
With COc1ccc(N(C)c2nc(Cl)nc3ccn(C)c23)cc1 the GI50 was less than 0.01 µM and the TGI was greater than 100 µM.
